In US8309558B2, “Compounds for the treatment of hepatitis C” (Bristol-Myers Squibb Company, priority 2008, dated 2012):
Where two headings read alike, the source gives them in different places.

What was measured:
HCV replicon cells = assay: HCV replicon FRET / luciferase assay (96-well plates); assay type: cell-based; settings: Hepatitis C virus
How it was run: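 Replicon cells + titrated cpds, 37 °C CO2. Alamar blue for cytotoxicity, PBS rinse, then lysis reagent w/ 20 μM FRET peptide (EDANS/DABCYL), 150 mM NaCl; kinetic read ex340/em490, 20 cycles. Alt: Dual-Glo luciferase. EC50 = 50% drop in FRET/luciferase signal after background subtraction.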

[1] = molecular target: T1, HCV NS5B RdRp genotype 1b (Hepatitis C virus genotype 1b, UniProt Q9WMX2); assay: Standard HCV NS5B RdRp enzyme assay; assay type: biochemical
T1 construct: The protein was expressed with an 18 amino acid C-terminal truncation to enhance the solubility; made in house; host or cells: E. coli BL21(DE3), pET21a vector
How it was run: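 C-terminally truncated (18 aa) genotype 1b NS5B from E. coli, 28 nM, with 6 nM polyA template, 180 nM biotinylated oligo-dT12 primer and 3H-UTP (0.29 μM total UTP). Hepes pH 7.5 buffer with 2% DMSO; 60 min at 30° C. EDTA stop, SPA read-out; IC50 from seven concentrations by four-parameter fit.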

[2] = Table 1b, HCV replicon, read-out: EC50
[3] = Table 1b, HCV NS5B RdRp genotype 1b, read-out: IC50
[4] = Table 1a, HCV replicon, read-out: EC50
[5] = Table 1a, HCV NS5B RdRp genotype 1b, read-out: IC50
[6] = 24 h, Table 1d (class symbols), HCV replicon, read-out: EC50
[7] = Table 1d (class symbols), HCV NS5B RdRp genotype 1b, read-out: IC50

T1 sequence (Q9WMX2 2420-2992): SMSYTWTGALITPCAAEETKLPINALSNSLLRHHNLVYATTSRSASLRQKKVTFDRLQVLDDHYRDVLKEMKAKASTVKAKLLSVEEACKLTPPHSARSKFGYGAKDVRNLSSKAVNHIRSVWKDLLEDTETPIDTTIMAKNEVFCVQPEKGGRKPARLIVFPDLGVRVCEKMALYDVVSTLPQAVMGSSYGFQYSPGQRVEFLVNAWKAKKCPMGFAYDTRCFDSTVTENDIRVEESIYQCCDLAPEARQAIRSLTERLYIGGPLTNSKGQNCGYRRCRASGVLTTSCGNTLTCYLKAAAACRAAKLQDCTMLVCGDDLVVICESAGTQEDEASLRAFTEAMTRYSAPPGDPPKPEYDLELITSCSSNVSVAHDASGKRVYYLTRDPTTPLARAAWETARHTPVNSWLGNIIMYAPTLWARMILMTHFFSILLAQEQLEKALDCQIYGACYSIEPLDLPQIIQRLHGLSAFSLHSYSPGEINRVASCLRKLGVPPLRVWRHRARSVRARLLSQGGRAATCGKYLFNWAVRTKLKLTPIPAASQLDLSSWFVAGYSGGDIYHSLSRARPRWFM

SMILES | EC50 (HCV replicon cells; [2]) [nM] | IC50 [1, 3] [nM] | EC50 (HCV replicon cells; [4]) [nM] | IC50 [1, 5] [nM] | other results
CNC(=O)c1c(-c2ccc(F)cc2)oc2ccc(-c3cc(C(=O)NCC(C)C)ccc3OCCCN)cc12 | < 250 | < 250 |  |  | 
CCC[C@H](CO)NC(=O)c1cccc(-c2ccc3oc(-c4ccc(F)cc4)c(C(=O)NC)c3c2)c1 [drawing 617] |  |  |  |  | EC50 (HCV replicon cells; untitled table after Table 1b, HCV replicon, values without asterisk, read-out: EC50): 1390 nM; IC50 ([1]; untitled table after Table 1b, HCV NS5B RdRp genotype 1b, read-out: IC50): 1150 nM
CNC(=O)c1c(-c2ccc(F)cc2)oc2ccc(-c3ccc(C(=O)N(C)Cc4cccnc4)cc3)cc12 [drawing 286] |  |  | > 10000 | 1000 to 10000 | 
CNC(=O)c1c(-c2ccc(F)cc2)oc2cc(N(CCO)S(C)(=O)=O)c(-c3cccc(C(=O)NC(C)(C)c4nc(C)no4)c3)cc12 | < 250 | < 250 |  |  | 
CNC(=O)c1c(-c2ccc(F)cc2)oc2ccc(-c3ccc(F)c(C(=O)O)c3)cc12 |  |  | > 10000 | 1000 to 10000 | 
CNC(=O)c1c(-c2ccc(F)cc2)oc2ccc(-c3cc(OCc4ccoc4)cc(C(=O)NCC(C)C)c3)cc12 | 1000 to 10000 | 1000 to 10000 |  |  | 
CCNC(=O)c1cccc(-c2ccc3oc(-c4ccc(F)cc4)c(C(=O)NC)c3c2)c1 |  |  | 250 to 1000 | 250 to 1000 | 
CNC(=O)c1c(-c2ccc(F)cc2)oc2ccc(-c3cccc(C(=O)NCC(N)=O)c3)cc12 |  |  | > 10000 | > 10000 | 
CNC(=O)c1c(-c2ccc(F)cc2)oc2ccc(-c3cccc(C(=O)N4C5CCC4CN(C)C5)c3)cc12 |  |  |  |  | EC50 (HCV replicon cells): 1000 to 10000 nM; IC50 [1]: 1000 to 10000 nM
CNC(=O)c1c(-c2ccc(F)cc2)oc2ccc(-c3cc(N)ccc3C)cc12 | 1000 to 10000 | 1000 to 10000 |  |  | 
CNC(=O)c1c(-c2ccc(F)cc2)oc2ccc(-c3cc(C(=O)NC4(c5ccccc5)CC4)ccc3OC(F)(F)F)cc12 | < 250 | 250 to 1000 |  |  | 
CNC(=O)c1c(-c2ccc(F)cc2)oc2cc(N(CCO)S(C)(=O)=O)c(-c3cc(C(=O)NC4(c5ccccc5)CC4)ccc3F)cc12 | < 250 | < 250 |  |  | 
CNC(=O)c1c(-c2ccc(F)cc2)oc2ccc(-c3cccc(C(=O)Nc4cc(C)ccn4)c3)cc12 |  |  | < 250 | 250 to 1000 | 
CCOC(=O)C(NC(=O)c1cccc(-c2ccc3oc(-c4ccc(F)cc4)c(C(=O)NC)c3c2)c1)C(C)C (stereo not shown) |  |  | 1000 to 10000 | 250 to 1000 | 
CNC(=O)c1c(-c2ccc(F)cc2)oc2ccc(-c3cccc(C(=O)NCC(C)(C)C)c3)cc12 |  |  | < 250 | < 250 | 
CNC(=O)c1c(-c2ccc(F)cc2)oc2ccc(-c3cc(C(=O)NCC(C)C)ccc3OCCCN3CCN(C)CC3)cc12 | < 250 | < 250 |  |  | 
CNC(=O)c1c(-c2ccc(F)cc2)oc2cc(N(CCO)S(C)(=O)=O)c(-c3cccc(C(=O)NC4(c5ccccc5)CC4)c3)cc12 | < 250 | < 250 |  |  | 
CNC(=O)c1c(-c2ccc(F)cc2)oc2ccc(-c3cccc(CO)c3)cc12 |  |  | > 10000 | > 10000 | 
CNC(=O)c1c(-c2ccc(F)cc2)oc2ccc(-c3cccc(C(=O)NC(C)(C)c4ccc(OC)cc4)c3)cc12 |  |  | < 250 | < 250 | 
CNC(=O)c1c(-c2ccc(F)cc2)oc2ccc(-c3cccc(C(=O)NC4(c5ccc(Cl)cc5)CC4)c3)cc12 | < 250 | < 250 |  |  | 
CNC(=O)c1c(-c2ccc(F)cc2)oc2ccc(-c3cc(C(=O)NC4(c5ncccn5)CC4)c(C)cc3C)c(F)c12 | < 250 | 250 to 1000 |  |  | 
CNC(=O)c1c(-c2ccc(F)cc2)oc2ccc(-c3cccc(C(=O)NC4(c5ccc(F)cc5)CC4)c3)cc12 |  |  | < 250 | < 250 | 
C#CCOc1cc(C)c(-c2ccc3oc(-c4ccc(F)cc4)c(C(=O)NC)c3c2)cc1C(=O)NC1(c2ccccn2)CC1 |  |  |  |  | EC50 (HCV replicon cells; [6]): 1 to 250 nM; IC50 [1, 7]: 1 to 250 nM
CNC(=O)c1c(-c2ccc(F)cc2)oc2ccc(-c3cc(OCCn4ccnc4)cc(C(=O)NCC(C)C)c3)cc12 | 1000 to 10000 | 1000 to 10000 |  |  | 
CNC(=O)c1c(-c2ccc(F)cc2)oc2ccc(-c3cccc(C(=O)NC4CCCC4)c3)cc12 |  |  | < 250 | < 250 | 
CNC(=O)c1c(-c2ccc(F)cc2)oc2ccc(-c3cc(C(=O)NCC(C)C)ccc3OCc3cn(C)cn3)cc12 | 250 to 1000 | 1000 to 10000 |  |  | 
CNC(=O)c1c(-c2ccc(F)cc2)oc2ccc(-c3cc(OCC4CCC4)cc(C(=O)NCC(C)C)c3)cc12 | 1000 to 10000 | > 10000 |  |  | 
CNC(=O)c1c(-c2ccc(F)cc2)oc2ccc(-c3cc(C(=O)NC4(c5cnc(C)cn5)CC4)ccc3C)c(F)c12 |  |  |  |  | EC50 (HCV replicon cells; [6]): 1 to 250 nM; IC50 [1, 7]: 1 to 250 nM
CNC(=O)c1c(-c2ccc(F)cc2)oc2ccc(-c3cc(C(=O)NCC(C)C)ccc3OCCCn3cccc3)cc12 | 250 to 1000 | 1000 to 10000 |  |  | 
